Experiments:
Experiment in all cases: relative viability (nuclei count vs DMSO), 5 days (fraction); higher = more cells survive
[1] = compound: CS(=O)(=O)c1ccc(C(=O)Nc2ccc(Cl)c(-c3ccccn3)c2)c(Cl)c1 [Vismodegib] + Cc1nc(Nc2ncc(C(=O)Nc3c(C)cccc3Cl)s2)cc(N2CCN(CCO)CC2)n1 [Dasatinib] (partner 0.075 µM)
How it was run: (§1)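 Relative viability was taken as the ratio of nuclei in treated wells to nuclei in vehicle wells. Lung cancer cell lines in 1536-well plates received compounds by pin tool one day after seeding, either one drug alone or a fixed anchor-drug dose plus five library-drug doses (not always all listed) in √10 steps. Nuclei were counted on 4× images after 5 days of treatment, and values are medians of duplicate plates.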

[2] = compound: CS(=O)(=O)c1ccc(-c2cnc(N)c(C(=O)Nc3ccccc3)n2)cc1 [VE-821] + O=C(c1cc(Cc2n[nH]c(=O)c3ccccc23)ccc1F)N1CCN(C(=O)C2CC2)CC1 [Olaparib] (partner 8 µM)
How it was run: as §1

[3] = compound: CS(=O)(=O)c1ccc(C(=O)Nc2ccc(Cl)c(-c3ccccn3)c2)c(Cl)c1 [Vismodegib] + NC(=O)Nc1cc(-c2cccc(F)c2)sc1C(=O)N[C@H]1CCCNC1 [AZD7762] (partner 0.2 µM)
How it was run: as §1

[4] = compound: CS(=O)(=O)c1ccc(C(=O)Nc2ccc(Cl)c(-c3ccccn3)c2)c(Cl)c1 [Vismodegib] + CS(=O)(=O)N1CCN(Cc2cc3nc(-c4cccc5[nH]ncc45)nc(N4CCOCC4)c3s2)CC1 [Pictilisib] (partner 1 µM)
How it was run: as §1

How did the relative viability ([1]; first compound 0.08 µM) turn out when NCI-H358 was run?
Its relative viability is 0.149.

What about the relative viability ([1]; first compound 0.253 µM) of the same cell line?
The relative viability was 0.183.

And the relative viability ([1]; first compound 0.8 µM)?
Its relative viability is 0.193.

What about the relative viability ([1]; first compound 2.53 µM) of the same cell line?
The relative viability was 0.172.

And the relative viability ([1]; first compound 8 µM)?
The relative viability was 0.161.

And the relative viability ([2]; first compound 0.08 µM)?
The relative viability was 0.69.

And the relative viability ([2]; first compound 0.253 µM)?
Its relative viability is 0.622.

What about the relative viability ([2]; first compound 0.8 µM) of the same cell line?
Its relative viability is 0.698.

What about the relative viability ([2]; first compound 2.53 µM) of the same cell line?
The relative viability was 0.697.

What about the relative viability ([2]; first compound 8 µM) of the same cell line?
Its relative viability is 0.665.

What about the relative viability ([3]; first compound 0.08 µM) of the same cell line?
Its relative viability is 0.529.

And the relative viability ([3]; first compound 0.253 µM)?
Its relative viability is 0.57.

What about the relative viability ([3]; first compound 0.8 µM) of the same cell line?
Its relative viability is 0.664.

And the relative viability ([3]; first compound 2.53 µM)?
The relative viability was 0.477.

And the relative viability ([3]; first compound 8 µM)?
The relative viability was 0.611.

What about the relative viability ([4]; first compound 0.08 µM) of the same cell line?
Its relative viability is 0.301.

And the relative viability ([4]; first compound 0.253 µM)?
The relative viability was 0.326.

What about the relative viability ([4]; first compound 0.8 µM) of the same cell line?
The relative viability was 0.294.

What about the relative viability ([4]; first compound 2.53 µM) of the same cell line?
The relative viability was 0.37.

And the relative viability ([4]; first compound 8 µM)?
The relative viability was 0.34.

For NCI-H441, which relative viability ([1]; first compound 0.08 µM) is on record?
The relative viability was 0.671.

What about the relative viability ([1]; first compound 0.253 µM) of the same cell line?
The relative viability was 0.444.

And the relative viability ([1]; first compound 0.8 µM)?
The relative viability was 0.502.

What about the relative viability ([1]; first compound 2.53 µM) of the same cell line?
The relative viability was 0.558.

And the relative viability ([1]; first compound 8 µM)?
Its relative viability is 0.433.

What about the relative viability ([2]; first compound 0.08 µM) of the same cell line?
The relative viability was 0.6.

What about the relative viability ([2]; first compound 0.253 µM) of the same cell line?
The relative viability was 0.643.

And the relative viability ([2]; first compound 0.8 µM)?
Its relative viability is 0.584.

What about the relative viability ([2]; first compound 2.53 µM) of the same cell line?
The relative viability was 0.469.

And the relative viability ([2]; first compound 8 µM)?
The relative viability was 0.247.

And the relative viability ([3]; first compound 0.08 µM)?
Its relative viability is 1.1.

What about the relative viability ([3]; first compound 0.8 µM) of the same cell line?
The relative viability was 1.05.

What about the relative viability ([3]; first compound 2.53 µM) of the same cell line?
The relative viability was 1.01.

And the relative viability ([3]; first compound 8 µM)?
Its relative viability is 1.03.

And the relative viability ([4]; first compound 0.08 µM)?
The relative viability was 0.505.

What about the relative viability ([4]; first compound 0.253 µM) of the same cell line?
The relative viability was 0.444.

And the relative viability ([4]; first compound 0.8 µM)?
The relative viability was 0.536.

And the relative viability ([4]; first compound 2.53 µM)?
The relative viability was 0.391.

What about the relative viability ([4]; first compound 8 µM) of the same cell line?
The relative viability was 0.502.

What does the source list for NCI-H460?
relative viability ([1]; first compound 0.08 µM): 0.575; relative viability ([1]; first compound 0.253 µM): 0.507; relative viability ([1]; first compound 0.8 µM): 0.533; relative viability ([1]; first compound 2.53 µM): 0.482; relative viability ([1]; first compound 8 µM): 0.533; relative viability ([2]; first compound 0.08 µM): 0.52; relative viability ([2]; first compound 0.253 µM): 0.378; relative viability ([2]; first compound 0.8 µM): 0.231; relative viability ([2]; first compound 2.53 µM): 0.138; relative viability ([2]; first compound 8 µM): 0.118; relative viability ([3]; first compound 0.08 µM): 0.583; relative viability ([3]; first compound 0.253 µM): 0.56; relative viability ([3]; first compound 0.8 µM): 0.576; relative viability ([3]; first compound 2.53 µM): 0.535; relative viability ([3]; first compound 8 µM): 0.724; relative viability ([4]; first compound 0.08 µM): 0.3; relative viability ([4]; first compound 0.253 µM): 0.385; relative viability ([4]; first compound 0.8 µM): 0.286; relative viability ([4]; first compound 2.53 µM): 0.318; relative viability ([4]; first compound 8 µM): 0.313

Which results are given for NCI-H596?
relative viability ([1]; first compound 0.08 µM): 0.568; relative viability ([1]; first compound 0.253 µM): 0.566; relative viability ([1]; first compound 0.8 µM): 0.585; relative viability ([1]; first compound 2.53 µM): 0.625; relative viability ([1]; first compound 8 µM): 0.556; relative viability ([2]; first compound 0.08 µM): 0.701; relative viability ([2]; first compound 0.253 µM): 0.714; relative viability ([2]; first compound 0.8 µM): 0.545; relative viability ([2]; first compound 2.53 µM): 0.555; relative viability ([2]; first compound 8 µM): 0.527; relative viability ([3]; first compound 0.08 µM): 1.07; relative viability ([3]; first compound 0.253 µM): 1.04; relative viability ([3]; first compound 0.8 µM): 0.954; relative viability ([3]; first compound 2.53 µM): 1.11; relative viability ([3]; first compound 8 µM): 1.08; relative viability ([4]; first compound 0.08 µM): 0.385; relative viability ([4]; first compound 0.253 µM): 0.404; relative viability ([4]; first compound 0.8 µM): 0.391; relative viability ([4]; first compound 2.53 µM): 0.391; relative viability ([4]; first compound 8 µM): 0.397

Which relative viability ([1]; first compound 0.08 µM) does the source give for NCI-H647 here?
Its relative viability is 0.222.

What about the relative viability ([1]; first compound 0.253 µM) of the same cell line?
Its relative viability is 0.202.

What about the relative viability ([1]; first compound 0.8 µM) of the same cell line?
Its relative viability is 0.177.

And the relative viability ([1]; first compound 2.53 µM)?
The relative viability was 0.18.

And the relative viability ([1]; first compound 8 µM)?
Its relative viability is 0.194.

What about the relative viability ([2]; first compound 0.08 µM) of the same cell line?
The relative viability was 0.504.

What about the relative viability ([2]; first compound 0.253 µM) of the same cell line?
Its relative viability is 0.546.

And the relative viability ([2]; first compound 0.8 µM)?
The relative viability was 0.413.

And the relative viability ([2]; first compound 2.53 µM)?
The relative viability was 0.184.

What about the relative viability ([2]; first compound 8 µM) of the same cell line?
Its relative viability is 0.101.

And the relative viability ([3]; first compound 0.08 µM)?
Its relative viability is 0.474.

What about the relative viability ([3]; first compound 0.253 µM) of the same cell line?
Its relative viability is 0.482.

What about the relative viability ([3]; first compound 0.8 µM) of the same cell line?
The relative viability was 0.415.

What about the relative viability ([3]; first compound 2.53 µM) of the same cell line?
The relative viability was 0.375.

And the relative viability ([3]; first compound 8 µM)?
The relative viability was 0.51.

What about the relative viability ([4]; first compound 0.253 µM) of the same cell line?
Its relative viability is 0.407.

And the relative viability ([4]; first compound 0.8 µM)?
Its relative viability is 0.389.

What about the relative viability ([4]; first compound 2.53 µM) of the same cell line?
Its relative viability is 0.401.

What about the relative viability ([4]; first compound 8 µM) of the same cell line?
The relative viability was 0.586.

For NCI-H650, which relative viability ([1]; first compound 0.08 µM) is on record?
The relative viability was 0.507.

And the relative viability ([1]; first compound 0.253 µM)?
The relative viability was 0.43.

And the relative viability ([1]; first compound 0.8 µM)?
Its relative viability is 0.358.

And the relative viability ([1]; first compound 2.53 µM)?
Its relative viability is 0.438.

And the relative viability ([1]; first compound 8 µM)?
The relative viability was 0.441.

What about the relative viability ([2]; first compound 0.08 µM) of the same cell line?
Its relative viability is 0.44.

And the relative viability ([2]; first compound 0.253 µM)?
Its relative viability is 0.432.

And the relative viability ([2]; first compound 0.8 µM)?
Its relative viability is 0.422.

What about the relative viability ([2]; first compound 2.53 µM) of the same cell line?
The relative viability was 0.482.

What about the relative viability ([2]; first compound 8 µM) of the same cell line?
The relative viability was 0.439.

What about the relative viability ([3]; first compound 0.08 µM) of the same cell line?
The relative viability was 0.958.

And the relative viability ([3]; first compound 0.253 µM)?
The relative viability was 0.925.

What about the relative viability ([3]; first compound 0.8 µM) of the same cell line?
Its relative viability is 0.864.

And the relative viability ([3]; first compound 2.53 µM)?
Its relative viability is 0.953.

And the relative viability ([3]; first compound 8 µM)?
The relative viability was 1.06.

And the relative viability ([4]; first compound 0.08 µM)?
The relative viability was 0.799.

And the relative viability ([4]; first compound 0.253 µM)?
Its relative viability is 0.733.

And the relative viability ([4]; first compound 0.8 µM)?
Its relative viability is 0.643.

And the relative viability ([4]; first compound 2.53 µM)?
The relative viability was 0.945.

And the relative viability ([4]; first compound 8 µM)?
The relative viability was 0.947.

Which results are given for NCI-H727?
relative viability ([1]; first compound 0.08 µM): 0.307; relative viability ([1]; first compound 0.253 µM): 0.345; relative viability ([1]; first compound 0.8 µM): 0.342; relative viability ([1]; first compound 2.53 µM): 0.308; relative viability ([1]; first compound 8 µM): 0.364; relative viability ([2]; first compound 0.08 µM): 0.725; relative viability ([2]; first compound 0.253 µM): 0.694; relative viability ([2]; first compound 0.8 µM): 0.765; relative viability ([2]; first compound 2.53 µM): 0.682; relative viability ([2]; first compound 8 µM): 0.66; relative viability ([3]; first compound 0.08 µM): 0.594; relative viability ([3]; first compound 0.253 µM): 0.691; relative viability ([3]; first compound 0.8 µM): 0.677; relative viability ([3]; first compound 2.53 µM): 0.448; relative viability ([3]; first compound 8 µM): 0.661; relative viability ([4]; first compound 0.08 µM): 0.525; relative viability ([4]; first compound 0.253 µM): 0.395; relative viability ([4]; first compound 0.8 µM): 0.277; relative viability ([4]; first compound 2.53 µM): 0.257; relative viability ([4]; first compound 8 µM): 0.402
